Test results taken from paper PMC5826973 (Frontiers in Pharmacology, 2018).

Tests used:
SK-HEP1 HCC cells = assay: MTT-based cell proliferation assay, SK-HEP1; parameters: species or system human
Experimental: (§1) Human HCC cells SK-HEP1 and QGY; breast cancer cells HCC1954, BT474, and MDA-MB468; ovarian cancer cells SKOV3; and prostate cancer cells PC3 and LNCaP were purchased from the Cell Bank of Chinese Academy of Sciences (Shanghai, China), and cultured in T75 flasks with complete DMEM or RPMI 1640 medium (GIBCO, Invitrogen, Gaithersburg, CA, United States) supplemented with 10% FBS (Hyclone, New Zealand), and 1% penicillin/streptomycin (Solarbio, Beijing, China) at 37°C in a humidified atmosphere containing 5% CO2.
(§2) Cell proliferation was determined using methylthiazolyl diphenyl-tetrazolium bromide assay (MTT; Sigma–Aldrich). The cells were seeded onto 96-well plates in a total volume of 150 μl at a density of 3.5 × 10^4 cells/well. […] To avoid the effect of the solvent, the concentration of DMSO was less than 0.1% (v/v) in all experiments. After incubation at 37°C for 48 h, 10 μl of MTT solution (5 mg/ml) was added and continued to incubate for 4 h. Following removal of medium containing MTT, 200 μl of DMSO was added to dissolve the formazan crystals formed by live cells. Solution absorbance was measured at 490 nm with an absorbance microplate reader (BioTek, Winooski, VT, United States). The assay was repeated six times. The IC50 value was determined from plot of % viability against the dose of compounds added.

QGY HCC cells = assay: MTT-based cell proliferation assay, QGY; parameters: species or system human
Experimental: as §1, §2

CyPJ PPIase = biological target: T1, CyPJ PPIase (Homo sapiens, UniProt Q9H2H8); assay: α-chymotrypsin-coupled PPIase assay; assay type: biochemical; details: for IC50: read-out: Compound IC50 for PPIase; for Compound IC50 for PPIase: CyPJ PPIase, substrate Suc-AAPF-pNA, 8°C, – = no inhibition detectable
T1 construct: made in house
T1 sequence (Q9H2H8 1-161): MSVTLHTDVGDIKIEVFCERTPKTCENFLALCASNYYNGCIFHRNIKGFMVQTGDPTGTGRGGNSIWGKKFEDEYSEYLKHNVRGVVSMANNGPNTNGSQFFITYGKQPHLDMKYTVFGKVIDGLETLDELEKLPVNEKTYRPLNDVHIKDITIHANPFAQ
Experimental: We used an α-chymotrypsin-coupled PPIase assay, where the substrate succinyl-Ala-Ala-Pro-Phe-p-nitroanilide (Suc-AAPF-pNA) is first converted to the trans conformation by PPIase, and can then be digested by α-chymotrypsin to release chromogenic p-nitroanilide; the latter compound is then monitored with a spectrometer. Briefly, the assay was performed under 8°C in a 100 μl system. The Suc-AAPF-pNA was dissolved in the […] containing 480 mM of LiCl (working concentration: 3.0 mM). The α-chymotrypsin was dissolved in 1 mM HCl (working concentration: […]). When assayed, each test compound was diluted in 94 μl of assay buffer (50 mM HEPES, 100 mM NaCl; pH 8.0 at 0°C), and then mixed with 2 μl of CyPJ solution (5 μM). […] Three independent experiments were performed for each test compound and the respective half maximal inhibitory concentration (IC50) was calculated with OriginPro 7.5 software (OriginLab, Northampton, MA, United States).
The inhibitory effect of each compounds was determined with a standard spectrophotometric method in chymotrypsin-coupled assays with different concentrations of peptide substrate. The rate constants for the cis–trans conversion were evaluated by fitting the data to the integrated first-order rate equation through nonlinear least-square analysis.

CyPJ = biological target: T2, CyPJ (Homo sapiens, UniProt Q9H2H8); assay: Surface plasmon resonance (SPR) binding assay; details: Biacore 3000, recombinant human CyPJ immobilized on CM5 chip, 20°C, compounds 0.3–10 μM
T2 construct: made in house
T2 sequence (Q9H2H8 1-161): T1 sequence (Q9H2H8 1-161)
Experimental: The binding affinity of the selected compounds to CyPJ was measured by SPR with a Biacore 3000 instrument (Biacore AB Corporation, Uppsala, Sweden) as previously described ([Guo et al., 2005]; [Chen et al., 2007]). Briefly, recombinant human CyPJ protein was immobilized on an activated sensor chip via amine coupling. CyPJ protein (10 μM) was coupled to a CM5 sensor chip surface (a carboxymethylated dextran surface; CM5 chip from Biacore, Inc., Piscataway, NJ, United States) in a buffer containing 10 mM sodium acetate (pH 4.0) using standard amine coupling chemistry according to the manufacturer’s instructions. Flow cell 1 (FC-1) was used as the control surface and flow cell 2 (FC-2) contained 9000 resonance units (RU) of CyPJ (1 RU corresponds to 1 pg of protein per mm^2). The buffer stream was passed through FC-1 and FC-2 of the bi-channel at a flow rate of 40 μl/min. Compounds to be tested were purchased from SPECS (Netherlands). All chemicals were of the highest purity available, as certified by the vendor. All compounds were stocked in 100% dimethylsulfoxide at 10 mM and diluted at graded concentrations (0.3–10 μM) with HBS-EP buffer (0.01 M HEPES buffer, pH 7.4, containing 0.15 M NaCl, 3.4 mM EDTA, and 0.005% surfactant P20) containing 1% dimethylsulfoxide. The temperature of the instrument was set to 20°C, and the flow rate was set to 40 μl/min. Each compound (50 μl) was injected sequentially. NaOH (50 mM) was used to regenerate the surface of the CM5 chip. The 1:1 Langmuir binding model was used to determine the equilibrium dissociation constant (KD). For fast interactions, the steady-state model was used to determine KD values. All experiments were carried out in triplicate.

[1] = system: SKOV3 ovarian cancer cells; assay: Growth inhibition, SKOV3; assay type: cell-based, human
Experimental: as §1, §2

[2] = system: PC3 prostate cancer cells; assay: Growth inhibition, PC3; assay type: cell-based, human
Experimental: as §1, §2

[3] = system: HCC1954 breast cancer cells; assay: Growth inhibition, HCC1954; assay type: cell-based, human
Experimental: as §1, §2

[4] = system: BT474 breast cancer cells; assay: Growth inhibition, BT474; assay type: cell-based, human
Experimental: as §1, §2

[5] = system: MDA-MB-468 breast cancer cells; assay: Growth inhibition, MDA-MB-468; assay type: cell-based, human
Experimental: as §1, §2

[6] = system: LNCaP prostate cancer cells; assay: Growth inhibition, LNCaP; assay type: cell-based, human
Experimental: as §1, §2

[7] = Table 4, ZX-J-19 derivatives, 48 h

| SMILES | IC50 (SK-HEP1 HCC cells; [7]) [µM] | IC50 (QGY HCC cells; [7]) [µM] | Kd (CyPJ) [µM] | other results |
| --- | --- | --- | --- | --- |
| O=C(Nc1ccc2nc(-c3ccccc3)c(-c3ccccc3)nc2c1)c1ccccc1 [ZX-J-19h] | 40.3 | 27.5 | – | – |
| CCOC(=O)c1ccc(NC(=O)c2cc(-c3ccc(C)c(C)c3)nc3ccccc23)cc1 [ZX-J-8] | – | – | 14.5 | IC50 (CyPJ PPIase): 10.3 ± 0.442 µM |
| CC(=O)Nc1ccc2nc(-c3ccc[nH]3)c(-c3ccc[nH]3)nc2c1 [ZX-J-19u] | 14.2 | 32.7 | – | – |
| O=C(Nc1ccc2nc(-c3ccco3)c(-c3ccco3)nc2c1)c1ccccc1 [ZX-J-19r] | 18.8 | 17.3 | – | – |
| CC(=O)Nc1ccc2nc(-c3ccccc3)c(-c3ccccc3)nc2c1 [ZX-J-19k] | 7.53 | 199 | – | – |
| CCCC(=O)Nc1ccc2nc(-c3ccco3)c(-c3ccco3)nc2c1 [ZX-J-19n] | 17.7 | 18 | – | – |
| CCC(=O)Nc1ccc2nc(-c3ccccc3)c(-c3ccccc3)nc2c1 [ZX-J-19i] | 40.8 | – | – | – |
| COc1ccc(NC(=O)c2ccc(COc3ccccc3Br)o2)c(OC)c1 [ZX-J-9] | – | – | 1.29 | IC50 (CyPJ PPIase): 8.54 ± 0.965 µM |
| CCCCCCCC(=O)Nc1ccc2nc(-c3ccco3)c(-c3ccco3)nc2c1 [ZX-J-19o] | 17.3 | 98.4 | – | – |
| Cc1cc(NC(=O)C(=O)NCCN2CCN(C(=O)c3ccccc3F)CC2)ccc1Br [ZX-J-18] | – | – | 0.242 | Compound IC50 for PPIase (CyPJ PPIase): no inhibition |
| O=C(Nc1ccc2nc(-c3ccco3)c(-c3ccco3)nc2c1)c1ccc([N+](=O)[O-])cc1 [ZX-J-19q] | 43.6 | 44.3 | – | – |
| O=C(Nc1ccc2nc(-c3ccccc3)c(-c3ccccc3)nc2c1)c1ccc([N+](=O)[O-])cc1 [ZX-J-19c] | – | 37.6 | – | – |
| O=C(Nc1ccc2nc(-c3ccco3)c(-c3ccco3)nc2c1)c1ccccc1Cl [ZX-J-19p] | 45.7 | – | – | – |
| O=C(CCl)Nc1ccc2nc(-c3ccccc3)c(-c3ccccc3)nc2c1 [ZX-J-19d] | 11.3 | 17.9 | – | – |
| COc1cc(NC(=O)COc2ccc3ccccc3c2)ccc1NC(=O)c1cc2ccccc2o1 [ZX-J-15] | – | – | 0.661 | Compound IC50 for PPIase (CyPJ PPIase): no inhibition |
| CCCC(=O)Nc1ccc2nc(-c3ccccc3)c(-c3ccccc3)nc2c1 [ZX-J-19l] | 3.51 | 21.4 | – | % Growth inhibition at 20 μM [1]: 90.919%; % Growth inhibition at 20 μM [2]: 91.039%; % Growth inhibition at 20 μM [3]: 91.258%; % Growth inhibition at 20 μM [4]: 90.963%; % Growth inhibition at 20 μM [5]: 90.849%; % Growth inhibition at 20 μM [6]: 91.038% |
| O=C(CCl)Nc1ccc2nc(-c3ccc[nH]3)c(-c3ccc[nH]3)nc2c1 [ZX-J-19v] | 140 | 127 | – | – |
| CCCOC(=O)c1ccc(N2C(=O)c3ccc(C(=O)OC(C)C(=O)c4ccc(C)cc4)cc3C2=O)cc1 (stereo not drawn) [ZX-J-16] | – | – | 3.41 | IC50 (CyPJ PPIase): 18.5 ± 0.727 µM |
| O=C(Nc1ccc2nc(-c3ccccc3)c(-c3ccccc3)nc2c1)c1ccc(Cl)cc1 [ZX-J-19g] | 9.89 | 11.3 | – | – |
| CCCCCCCC(=O)Nc1ccc2nc(-c3ccccc3)c(-c3ccccc3)nc2c1 [ZX-J-19j, N-(2,3-diphenylquinoxalin-6-yl)octanamide] | – | – | – | inhibition at 20 µM ([1]; Homo sapiens, SK-OV-3): 48.1%; IC50 (SK-HEP1 HCC cells; Homo sapiens, SK-HEP1, Table 4, ZX-J-19 derivatives, 48 h): 6.73 µM; inhibition at 20 µM ([2]; Homo sapiens): 84.7%; inhibition at 20 µM ([3]; Homo sapiens): 64.2%; inhibition at 20 µM ([4]; Homo sapiens, BT-474): 84%; inhibition at 20 µM ([5]; Homo sapiens): 84.7%; inhibition at 20 µM ([6]; Homo sapiens): 48.1%; IC50 (QGY HCC cells; Homo sapiens, Table 4, ZX-J-19 derivatives, 48 h): 12.5 µM |
| O=c1[nH]cc(F)c(=O)[nH]1 [Compound 5-FU, 5-fluorouracil, reference compound] | – | – | – | IC50 (SK-HEP1 HCC cells; Homo sapiens, SK-HEP1, Table 2, 48 h): 177.24 ± 0.065 µM; IC50 (QGY HCC cells; Homo sapiens, Table 2, 48 h): 238.53 ± 0.035 µM |
| CC(C)(C)C(=O)Nc1ccc2nc(-c3ccccc3)c(-c3ccccc3)nc2c1 [ZX-J-19b] | 21.6 | 26 | – | – |
| COc1ccc(CCNC(=O)c2ccc(C(=O)NCCc3ccc(OC)c(OC)c3)nc2)cc1OC [ZX-J-10] | – | – | 0.8 | Compound IC50 for PPIase (CyPJ PPIase): no inhibition |
| O=C(Nc1ccc2nc(-c3ccccc3)c(-c3ccccc3)nc2c1)c1cccc(Cl)c1 [ZX-J-19e] | 7.5 | 12.3 | – | – |
| COc1cc(/C=N/NC(=O)c2cc3c(ccc4ccccc43)o2)ccc1OCc1ccccc1F [ZX-J-17] | – | – | 0.0435 | Compound IC50 for PPIase (CyPJ PPIase): no inhibition |
| O=C(Nc1ccc2nc(-c3ccc[nH]3)c(-c3ccc[nH]3)nc2c1)c1ccc(Cl)cc1 [ZX-J-19t] | 46.3 | 42.5 | – | – |
| CC(C)OC(=O)c1ccc(NC(=O)c2ccc(COc3ccccc3Cl)o2)cc1 [ZX-J-13] | – | – | 0.516 | IC50 (CyPJ PPIase): 12.63 ± 0.068 µM |
| CCCCOc1cccc(-c2cc(C(=O)Nc3ccc4c(c3)OCCO4)c3ccccc3n2)c1 [ZX-J-12] | – | – | 118 | IC50 (CyPJ PPIase): 12.95 ± 0.054 µM |
| C/C(=N/NC(=O)c1ccc(COc2ccc3c(c2)CCC3)o1)c1ccc(NC(=O)C2CCCC2)cc1 [ZX-J-11] | – | – | 0.0988 | IC50 (CyPJ PPIase): 19.95 ± 0.025 µM |
| CC(C)(C)C(=O)Nc1ccc2nc(-c3ccco3)c(-c3ccco3)nc2c1 [ZX-J-19m] | 76.7 | 82.3 | – | – |
